Measurements reported in ChEMBL document CHEMBL4715829, “Heterodimeric Rifampicin-Tobramycin conjugates break intrinsic resistance of Pseudomonas aeruginosa to doxycycline and chloramphenicol in vitro and in a Galleria mellonella in vivo model” (Eur J Med Chem, 2019).

Experiments:
Pseudomonas aeruginosa [1] = experiment: Potentiation of doxycycline-induced antibacterial activity against Pseudomonas aeruginosa 262-101856 assessed as fold change in doxycycline MIC at 9.8 uM incubated for 18 hrs in presence of doxycycline by broth microdilution assay relative to control; type: functional
Pseudomonas aeruginosa [2] = experiment: Antibacterial activity against Pseudomonas aeruginosa 260-97103 infected in Galleria mellonella larvae assessed as survival of larvae at 75 mg/kg treated at 3 hrs post-infection in presence of doxycycline and measured after 18 hrs relative to control; type: functional
Pseudomonas aeruginosa [3] = experiment: Antibacterial activity against Pseudomonas aeruginosa 114228 assessed as fractional inhibitory concentration index in presence of doxycycline incubated for 18 hrs by broth microdilution assay; type: functional
Pseudomonas aeruginosa [4] = experiment: Antibacterial activity against Pseudomonas aeruginosa 114228 assessed as fractional inhibitory concentration index in presence of chloramphenicol incubated for 18 hrs by broth microdilution assay; type: functional
Pseudomonas aeruginosa [5] = experiment: Potentiation of chloramphenicol-induced antibacterial activity against Pseudomonas aeruginosa PAO750 harboring MexAB-OprM, MexCD-OprJ, MexEF-OprN, Mex JK, MexXY and the OM protein OpmH deletion mutant assessed as fold change in chloramphenicol MIC at <=9.8 uM incubated for 18 hrs in presence of chloramphenicol by broth microdilution assay; type: functional; conditions: dose microM <=9.8
Acinetobacter baumannii [6] = experiment: Antibacterial activity against Acinetobacter baumannii ATCC 17978 assessed as fractional inhibitory concentration index in presence of chloramphenicol incubated for 18 hrs by broth microdilution assay; type: functional
Pseudomonas aeruginosa [7] = experiment: Antibacterial activity against Pseudomonas aeruginosa 91433 assessed as fractional inhibitory concentration incubated for 18 hrs in presence of tigecycline by broth microdilution assay; type: functional
Pseudomonas aeruginosa [8] = experiment: Potentiation of doxycycycline-induced bactericidal activity against Pseudomonas aeruginosa PAO1 assessed as bacterial viability at 9.8 microM incubated for 9 hrs in LB medium in presence of doxycycline followed by plating on agar plate and measured after 20 hrs by time-kill assay; type: functional; conditions: time 29 hrs
Escherichia coli [9] = experiment: Antibacterial activity against Escherichia coli ATCC 25922 assessed as fractional inhibitory concentration index in presence of doxycycline incubated for 18 hrs by broth microdilution assay; type: functional
Pseudomonas aeruginosa [10] = experiment: Potentiation of chloramphenicol-induced antibacterial activity against Pseudomonas aeruginosa 101885 assessed as fold change in chloramphenicol MIC at 9.8 uM incubated for 18 hrs in presence of chloramphenicol by broth microdilution assay relative to control; type: functional
Pseudomonas aeruginosa [11] = experiment: Potentiation of chloramphenicol-induced antibacterial activity against Pseudomonas aeruginosa 260-97103 incubated for 18 hrs in presence of chloramphenicol by broth microdilution assay; type: functional, organism-based; conditions: dose 1-32 µg/ml
Pseudomonas aeruginosa [12] = experiment: Antibacterial activity against Pseudomonas aeruginosa 259-96918 assessed as fractional inhibitory concentration index incubated for 18 hrs in presence of minocycline by broth microdilution assay; type: functional
Escherichia coli [13] = experiment: Antibacterial activity against Escherichia coli ATCC 25922 assessed as potentiation of doxycycline-induced antibacterial activity by measuring doxycycline MIC at 10 uM incubated for 18 hrs in presence of doxycycline by broth microdilution assay (reference value: 0.5 ug/ml); type: functional
Acinetobacter baumannii [14] = experiment: Antibacterial activity against Acinetobacter baumannii ATCC 17978 assessed as reduction in bacterial growth incubated for 18 hrs by broth microdilution assay; type: functional
Enterobacter cloacae [15] = experiment: Antibacterial activity against Enterobacter cloacae ATCC 117029 assessed as potentiation of doxycycline-induced antibacterial activity by measuring doxycycline MIC at 10 uM incubated for 18 hrs in presence of doxycycline by broth microdilution assay (reference value: 64 ug/ml); type: functional
Enterobacter cloacae [16] = experiment: Antibacterial activity against Enterobacter cloacae ATCC 117029 assessed as potentiation of chloramphenicol-induced antibacterial activity by measuring chloramphenicol MIC at 10 uM incubated for 18 hrs in presence of chloramphenicol by broth microdilution assay (reference value: 8 ug/ml); type: functional
Klebsiella pneumoniae [17] = experiment: Antibacterial activity against Klebsiella pneumoniae ATCC 16381 assessed as potentiation of doxycycline-induced antibacterial activity by measuring doxycycline MIC at 10 uM incubated for 18 hrs in presence of doxycycline by broth microdilution assay (reference value: 128 ug/ml); type: functional
Pseudomonas aeruginosa [18] = experiment: Antibacterial activity against Pseudomonas aeruginosa 101885 assessed as fractional inhibitory concentration incubated for 18 hrs in presence of tigecycline by broth microdilution assay; type: functional
Pseudomonas aeruginosa [19] = experiment: Antibacterial activity against Pseudomonas aeruginosa 260-97103 assessed as fractional inhibitory concentration index incubated for 18 hrs in presence of tigecycline by broth microdilution assay; type: functional
Pseudomonas aeruginosa [20] = experiment: Antibacterial activity against Pseudomonas aeruginosa 91433 assessed as fractional inhibitory concentration incubated for 18 hrs in presence of rifampicin by broth microdilution assay; type: functional
Pseudomonas aeruginosa [21] = experiment: Antibacterial activity against Pseudomonas aeruginosa 264-101354 assessed as fractional inhibitory concentration incubated for 18 hrs in presence of tigecycline by broth microdilution assay; type: functional
Pseudomonas aeruginosa [22] = experiment: Potentiation of doxycycline-induced antibacterial activity against Pseudomonas aeruginosa 260-97103 incubated for 18 hrs in presence of doxycycline by broth microdilution assay; type: functional, organism-based; conditions: dose 1-32 µg/ml
Pseudomonas aeruginosa [23] = experiment: Potentiation of doxycycline-induced antibacterial activity against Pseudomonas aeruginosa 260-97103 assessed as fold change in doxycycline MIC at 9.8 uM incubated for 18 hrs in presence of doxycycline by broth microdilution assay relative to control; type: functional
Klebsiella pneumoniae [24] = experiment: Antibacterial activity against Klebsiella pneumoniae ATCC 16381 assessed as fractional inhibitory concentration index in presence of chloramphenicol incubated for 18 hrs by broth microdilution assay; type: functional
Enterobacter cloacae [25] = experiment: Antibacterial activity against Enterobacter cloacae ATCC 117029 assessed as reduction in bacterial growth incubated for 18 hrs by broth microdilution assay; type: functional
Pseudomonas aeruginosa [26] = experiment: Antibacterial activity against Pseudomonas aeruginosa 264-101354 assessed as fractional inhibitory concentration incubated for 18 hrs in presence of doxycycline by broth microdilution assay; type: functional
Pseudomonas aeruginosa [27] = experiment: Antibacterial activity against Pseudomonas aeruginosa 259-96918 assessed as fractional inhibitory concentration incubated for 18 hrs in presence of doxycycline by broth microdilution assay; type: functional
Pseudomonas aeruginosa [28] = experiment: Antibacterial activity against Pseudomonas aeruginosa 101243 assessed as fractional inhibitory concentration incubated for 18 hrs in presence of chloramphenicol by broth microdilution assay; type: functional
Pseudomonas aeruginosa [29] = experiment: Antibacterial activity against Pseudomonas aeruginosa 101243 assessed as fractional inhibitory concentration incubated for 18 hrs in presence of doxycycline by broth microdilution assay; type: functional
Pseudomonas aeruginosa [30] = experiment: Antibacterial activity against Pseudomonas aeruginosa 264-101354 assessed as fractional inhibitory concentration incubated for 18 hrs in presence of chloramphenicol by broth microdilution assay; type: functional
Pseudomonas aeruginosa [31] = experiment: Antibacterial activity against Pseudomonas aeruginosa 100036 assessed as fractional inhibitory concentration incubated for 18 hrs in presence of chloramphenicol by broth microdilution assay; type: functional
Pseudomonas aeruginosa [32] = experiment: Antibacterial activity against Pseudomonas aeruginosa 262-101856 assessed as fractional inhibitory concentration incubated for 18 hrs in presence of chloramphenicol by broth microdilution assay; type: functional
Acinetobacter baumannii [33] = experiment: Potentiation of doxycycline-induced antibacterial activity against Acinetobacter baumannii ATCC 17978 assessed as fold change in doxycycline MIC at 7.6 uM incubated for 18 hrs in presence of doxycycline by broth microdilution assay relative to control; type: functional
Pseudomonas aeruginosa [34] = experiment: Antibacterial activity against Pseudomonas aeruginosa 264-101354 assessed as reduction in bacterial growth by measuring doxycycline MIC at 4 ug/ml incubated for 18 hrs in presence of doxycycline by broth microdilution assay (reference value: 64 ug/ml); type: functional; conditions: dose 4 µg/ml

## CO[C@H]1/C=C/O[C@@]2(C)Oc3c(C)c(O)c4c(O)c(c(/C=N/N5CCN(Cc6cn(CCCCCCO[C@@H]7[C@@H](O[C@H]8O[C@H](CO)[C@@H](O)[C@H](N)[C@H]8O)[C@H](N)C[C@H](N)[C@H]7O[C@H]7O[C@H](CN)[C@@H](O)C[C@H]7N)nn6)CC5)c(O)c4c3C2=O)NC(=O)/C(C)=C\C=C\[C@H](C)[C@H](O)[C@@H](C)[C@@H](O)[C@@H](C)[C@H](OC(C)=O)[C@@H]1C.Cl.Cl.Cl.Cl.Cl
Pseudomonas aeruginosa [1]
  fold change (FC): 4
Pseudomonas aeruginosa [2]
  survival at 75 mg/kg: 75%
Pseudomonas aeruginosa [3]
  fractional inhibitory concentration index (FICI): <0.156
Pseudomonas aeruginosa [4]
  fractional inhibitory concentration index (FICI): <0.281
Pseudomonas aeruginosa [5]
  fold change (FC): 4
Acinetobacter baumannii [6]
  fractional inhibitory concentration index (FICI): 0.75
Pseudomonas aeruginosa [7]
  FIC: <0.125
Pseudomonas aeruginosa [8]
  Activity: <10 CFU/ml
Escherichia coli [9]
  fractional inhibitory concentration index (FICI): 0.5
Pseudomonas aeruginosa [10]
  fold change (FC): 4
Pseudomonas aeruginosa [11]
  Activity: Dose-dependent effect
Pseudomonas aeruginosa [12]
  fractional inhibitory concentration index (FICI): <0.16
Escherichia coli [13]
  MIC: 0.125 µg/mL
Acinetobacter baumannii [14]
  MIC: 64 µg/mL
Enterobacter cloacae [15]
  MIC: 16 µg/mL
Enterobacter cloacae [16]
  MIC: 1 µg/mL
Klebsiella pneumoniae [17]
  MIC: 64 µg/mL
Pseudomonas aeruginosa [18]
  FIC: 0.063
Pseudomonas aeruginosa [19]
  fractional inhibitory concentration index (FICI): <0.16
Pseudomonas aeruginosa [20]
  FIC: <0.125
Pseudomonas aeruginosa [21]
  FIC: 0.063
Pseudomonas aeruginosa [22]
  Activity: Dose-dependent effect
Pseudomonas aeruginosa [23]
  fold change (FC): 4
Klebsiella pneumoniae [24]
  fractional inhibitory concentration index (FICI): <0.375
Enterobacter cloacae [25]
  MIC: 16 µg/mL

## NC[C@H]1O[C@H](O[C@H]2[C@H](O)[C@@H](O[C@H]3O[C@H](CO)[C@@H](O)[C@H](N)[C@H]3O)[C@H](N)C[C@@H]2N)[C@H](N)C[C@@H]1O [TOBRAMYCIN]
Pseudomonas aeruginosa [26]
  FIC: 0.5
Pseudomonas aeruginosa [27]
  FIC: 0.125
Pseudomonas aeruginosa [28]
  FIC: 0.5
Pseudomonas aeruginosa [29]
  FIC: 0.5
Pseudomonas aeruginosa [30]
  FIC: 0.5
Pseudomonas aeruginosa [31]
  FIC: 0.5
Pseudomonas aeruginosa [32]
  FIC: <=0.5

## CO[C@H]1/C=C/O[C@@]2(C)Oc3c(C)c(O)c4c(O)c(c(/C=N/N5CCN(Cc6cn(CCCCCCCCCCCCO[C@@H]7[C@@H](O[C@H]8O[C@H](CO)[C@@H](O)[C@H](N)[C@H]8O)[C@H](N)C[C@H](N)[C@H]7O[C@H]7O[C@H](CN)[C@@H](O)C[C@H]7N)nn6)CC5)c(O)c4c3C2=O)NC(=O)/C(C)=C\C=C\[C@H](C)[C@H](O)[C@@H](C)[C@@H](O)[C@@H](C)[C@H](OC(C)=O)[C@@H]1C.O=C(O)C(F)(F)F.O=C(O)C(F)(F)F.O=C(O)C(F)(F)F.O=C(O)C(F)(F)F.O=C(O)C(F)(F)F
Acinetobacter baumannii [33]
  fold change (FC): 0
Pseudomonas aeruginosa [3]
  fractional inhibitory concentration index (FICI): <0.187
Pseudomonas aeruginosa [4]
  fractional inhibitory concentration index (FICI): <0.156
Acinetobacter baumannii [6]
  fractional inhibitory concentration index (FICI): 0.75
Escherichia coli [9]
  fractional inhibitory concentration index (FICI): 0.625
Pseudomonas aeruginosa [11]
  Activity: Dose-dependent effect
Escherichia coli [13]
  MIC: 0.25 µg/mL
Acinetobacter baumannii [14]
  MIC: 64 µg/mL
Enterobacter cloacae [15]
  MIC: 32 µg/mL
Enterobacter cloacae [16]
  MIC: 1 µg/mL
Klebsiella pneumoniae [17]
  MIC: 64 µg/mL
Pseudomonas aeruginosa [22]
  Activity: Dose-dependent effect
Klebsiella pneumoniae [24]
  fractional inhibitory concentration index (FICI): <0.281
Enterobacter cloacae [25]
  MIC: 16 µg/mL

## CO[C@H]1/C=C/O[C@@]2(C)Oc3c(C)c(O)c4c(O)c(c(/C=N/N5CCN(C)CC5)c(O)c4c3C2=O)NC(=O)/C(C)=C\C=C\[C@H](C)[C@H](O)[C@@H](C)[C@@H](O)[C@@H](C)[C@H](OC(C)=O)[C@@H]1C [RIFAMPIN]
Pseudomonas aeruginosa [26]
  FIC: 0.25
Pseudomonas aeruginosa [28]
  FIC: 0.5
Pseudomonas aeruginosa [29]
  FIC: 0.5
Pseudomonas aeruginosa [30]
  FIC: 0.5
Pseudomonas aeruginosa [31]
  FIC: 0.5
Pseudomonas aeruginosa [32]
  FIC: 0.5
Pseudomonas aeruginosa [34]
  MIC: 32 µg/mL
